Measurements published in patent US20020090352A1, “Compositions and methods for use in modulating immune system function” (priority 2000, published 2002).
“Also recorded” adds a separate entry of the source.

How the values were obtained:
RXR AF2 = conditions: retinoid activity, reporter cells; cited from earlier work
[1] = test system: immature LC (Langerhans cells); experiment: Apoptosis of immature LC, flow cytometry of PI stained nuclei (sub 2N particles) / annexin V; assay type: cell-based, human; conditions: for induction of apoptosis / death of immature LC by the substance on its own: no TNFα; for induction of apoptosis / death of immature LC by the substance on its own / inhibition of retinoid-induced apoptosis / cell death of immature LC / synergy with the pan-RXR agonist SR11237 to induce LC death: result in words
[2] = test system: immature LC (Langerhans cells); experiment: Activation of immature LC: HLA-DR and CD86 expression by flow cytometry; assay type: cell-based, human; set-up: class II or CD86 upregulation on immature LC: dose or concentration left out as unconfirmed; conditions: for activation of immature LC (class II / CD86, DRhi-CD86hi) in the presence of TNFα: TNFα 1-10 ng/ml
Description: Immature LC were cultured with retinol or vehicle and/or TNFα for 40 h. Cells were washed and incubated with HLA-DR-FITC and CD86-PE or isotype controls for 15 min at 4° C. 10^4 events were then analyzed with a FACScalibur (Becton Dickinson) using CellQuest software (Becton Dickinson). % are given for DRhi CD86hi cells gated as indicated. Data are representative of three experiments on different donors.
FIG. 3A: Day 6 immature LC were cultured for 40 h with TNFα and/or retinoids or vehicle as indicated. Cells were washed and stained with HLA-DR-FITC and CD86-PE or isotype controls for 15 min at 4° C. 10^4 events were then analyzed with a FACScalibur (Becton Dickinson) using CellQuest software (Becton Dickinson). Data are given for DRhi/CD86 hi cells gated as indicated, and are representative of 10 experiments on different donors.
Percentages of DRhi/CD86 hi cells are represented and results are expressed as the mean±SD of at last three experiments on different donors.
Flow Cytometry Analysis. 1×10^5 cells were incubated in 96-well plates (Becton Dickinson Labware, Franklin Lakes, N.J.) for 15 min at 4 ° C. in PBS, 2% human AB serum, and 0.01 M NaN3, with FITC-conjugated anti-DR (Immunotech, Marseille, France) and PE-conjugated CD86 (Pharmingen, San Diego, Calif.) at the appropriate concentration, or with control isotype-matched irrelevant mAbs at the same concentration. After washing, 10^4 events were analyzed with a FACScalibur (Becton Dickinson Immunocytometry Systems, Mountain View, Calif.) using CellQuest software.

RARγ AF2 = molecular target: T1, RARγ AF2 (Homo sapiens, UniProt P13631); conditions: retinoid activity, reporter cells; cited from earlier work; further: key: '+' = agonist; '(+)' = weak agonist; '−' = antagonist; '0' = absence of agonist and antagonist activities
T1 construct: expressed in transfected cells
T1 sequence (P13631 185-419 limits assumed): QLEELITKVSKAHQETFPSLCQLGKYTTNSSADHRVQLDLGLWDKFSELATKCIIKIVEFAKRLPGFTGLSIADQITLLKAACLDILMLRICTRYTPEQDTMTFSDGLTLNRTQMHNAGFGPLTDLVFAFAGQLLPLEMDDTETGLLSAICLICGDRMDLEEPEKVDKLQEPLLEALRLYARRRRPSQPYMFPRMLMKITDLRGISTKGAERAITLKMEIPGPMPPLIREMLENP

RARα AF2 = molecular target: T2, RARα AF2 (Homo sapiens, UniProt P10276); conditions: retinoid activity, reporter cells; cited from earlier work; further: key: '+' = agonist; '(+)' = weak agonist; '−' = antagonist; '0' = absence of agonist and antagonist activities
T2 construct: expressed in transfected cells
T2 sequence (P10276 183-417 limits assumed): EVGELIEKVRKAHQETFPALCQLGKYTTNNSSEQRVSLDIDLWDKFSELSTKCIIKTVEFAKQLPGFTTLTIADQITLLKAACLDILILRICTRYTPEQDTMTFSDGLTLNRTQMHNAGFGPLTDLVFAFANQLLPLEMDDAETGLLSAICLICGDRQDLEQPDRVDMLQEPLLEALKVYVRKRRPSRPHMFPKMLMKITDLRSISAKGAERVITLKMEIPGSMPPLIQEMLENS

RARβ AF2 = molecular target: T3, RARβ AF2 (Homo sapiens, UniProt P10826); conditions: retinoid activity, reporter cells; cited from earlier work; further: key: '+' = agonist; '(+)' = weak agonist; '−' = antagonist; '0' = absence of agonist and antagonist activities
T3 construct: expressed in transfected cells
T3 sequence (P10826 183-417 limits assumed): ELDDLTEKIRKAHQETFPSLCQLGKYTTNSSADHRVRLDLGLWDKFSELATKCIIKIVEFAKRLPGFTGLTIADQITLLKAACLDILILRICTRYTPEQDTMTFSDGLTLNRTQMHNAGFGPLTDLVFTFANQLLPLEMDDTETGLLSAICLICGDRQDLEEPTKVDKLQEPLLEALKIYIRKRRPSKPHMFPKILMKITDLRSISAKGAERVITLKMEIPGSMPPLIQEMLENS

RARα-RXRα heterodimer = molecular target: T4, RARα-RXRα heterodimer (Homo sapiens, UniProt P10276+P19793); conditions: retinoid activity, transient transfection; cited from earlier work; further: key: '+' = agonist; '(+)' = weak agonist; '−' = antagonist; '0' = absence of agonist and antagonist activities
T4 construct: expressed in transfected cells
T4 sequence (P10276 1-462): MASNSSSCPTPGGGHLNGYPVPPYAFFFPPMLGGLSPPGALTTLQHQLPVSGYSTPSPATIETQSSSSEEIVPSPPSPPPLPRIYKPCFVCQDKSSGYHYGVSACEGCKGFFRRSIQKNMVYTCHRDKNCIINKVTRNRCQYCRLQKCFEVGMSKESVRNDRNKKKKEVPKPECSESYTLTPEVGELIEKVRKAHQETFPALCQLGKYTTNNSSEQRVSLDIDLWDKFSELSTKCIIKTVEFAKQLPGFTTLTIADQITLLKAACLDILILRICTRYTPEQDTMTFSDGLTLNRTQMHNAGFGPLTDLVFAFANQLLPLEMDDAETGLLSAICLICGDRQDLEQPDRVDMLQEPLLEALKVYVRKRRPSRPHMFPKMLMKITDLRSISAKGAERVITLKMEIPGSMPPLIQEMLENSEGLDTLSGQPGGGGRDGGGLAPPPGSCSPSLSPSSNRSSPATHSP
T4 sequence (P19793 1-462): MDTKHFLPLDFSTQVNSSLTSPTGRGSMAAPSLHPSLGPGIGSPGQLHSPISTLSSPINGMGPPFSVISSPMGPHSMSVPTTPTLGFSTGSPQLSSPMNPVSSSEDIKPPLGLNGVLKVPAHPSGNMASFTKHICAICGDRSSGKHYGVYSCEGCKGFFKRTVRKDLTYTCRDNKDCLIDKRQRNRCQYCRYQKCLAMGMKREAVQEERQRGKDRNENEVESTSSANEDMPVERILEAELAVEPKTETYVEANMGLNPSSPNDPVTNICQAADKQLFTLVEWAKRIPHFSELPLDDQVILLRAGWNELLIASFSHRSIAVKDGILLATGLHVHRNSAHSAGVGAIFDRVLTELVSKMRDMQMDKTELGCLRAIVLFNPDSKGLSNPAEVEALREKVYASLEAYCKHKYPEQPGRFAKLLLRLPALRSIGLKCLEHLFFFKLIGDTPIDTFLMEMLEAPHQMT

RXRα homodimer [(RXR)2] = molecular target: T5, RXRα homodimer [(RXR)2] (Homo sapiens, UniProt P19793); conditions: retinoid activity, transient transfection; cited from earlier work
T5 construct: expressed in transfected cells
T5 sequence (P19793 1-462): T4 sequence (P19793 1-462)

[3] = 1 nM, two days in culture, mean ± SD
[4] = 10 nM, two days in culture, mean ± SD
[5] = 100 nM, two days in culture, mean ± SD
[6] = 1 μM, two days in culture, mean ± SD

Compound	RXR AF2 (RXR AF2)	percentage of apoptotic (<2N) particles [1, 3]	percentage of apoptotic (<2N) particles [1, 4]	percentage of apoptotic (<2N) particles [1, 5]	percentage of apoptotic (<2N) particles [1, 6]	activation of immature LC (class II / CD86, DRhi-CD86hi) in the presence of TNFα ([2]; result in words)	RARγ AF2 (RARγ AF2)	RARα AF2 (RARα AF2)	percentage of apoptotic (<2N) particles ([1]; 100 nM SR11237 + 1 nM ligand)	percentage of apoptotic (<2N) particles ([1]; 100 nM SR11237 + 10 nM ligand)	percentage of apoptotic (<2N) particles ([1]; 100 nM SR11237 + 100 nM ligand)	percentage of apoptotic (<2N) particles ([1]; 100 nM SR11237 + 1 μM ligand)	inhibition of retinoid-induced apoptosis / cell death of immature LC [1]	RARβ AF2 (RARβ AF2)	further results
CC1=C(/C=C/C(C)=C\C=C\C(C)=C\C(=O)O)C(C)(C)CCC1 [Compound 9cRA, 9-cis retinoic acid, reference compound]	+	≦5%	≦5%	8 ± 3%	30 ± 9%	upregulate									induction of apoptosis / death of immature LC by the substance on its own [1]: induced a similar dose- and time-dependent increase in death; class II or CD86 upregulation on immature LC ([2]; in the absence or at low concentrations of TNFα): did not significantly induce
CC1(C)CC=C(C#Cc2ccccc2)c2cc(/C=C/c3ccc(C(=O)O)cc3)ccc21 [Compound VIII]	0						−	−	≦5%	≦5%	≦5%	≦5%	inhibited retinol-induced cell death; also recorded: strongly inhibited	−	effect on Compound II / SR11237 synergy for TNFα-induced LC activation ([2]; result in words): inhibited; effect on TNFα-SR11237 synergism for LC activation ([2]; result in words): only a weak effect; effect on synergy between TNFα and retinol, tRA or Compound I on LC activation ([2]; result in words): inhibited; effect on 9cRA-induced LC activation ([2]; with TNFα, result in words): only partially blocked
CC1(C)CC=C(c2ccccc2)c2cc(/C=C/c3ccc(C(=O)O)cc3Cl)ccc21 [Compound III, (E)-3-Chloro-4-[2-(5,6-dihydro-5,5-dimethyl-8-phenyl-2-naphthalenyl)-ethenyl] benzoic acid]	0	≦5%	≦5%	≦5%	≦5%	weak effect; also recorded: upregulate	0	0	≦5%	≦5%	16 ± 3%	30 ± 2%		+	synergy with the pan-RXR agonist SR11237 to induce LC death [1]: synergized with the pan-RXR agonist to induce LC death
CC1(C)CC=C(c2ccccc2)c2cc(/C=C/c3ccc(C(=O)O)cc3)ccc21 [Compound VII]	0	≦5%	≦5%	≦5%	10 ± 6%	weak effect	−	−	≦5%	5%	20 ± 6%	19 ± 7%		+	synergy with the pan-RXR agonist SR11237 to induce LC death [1]: synergized with the pan-RXR agonist to induce LC death
TNFα													inhibited the pro-apoptotic effects		inhibition of the pro-apoptotic effects of retinol ([1]; 1 ng/ml of TNFα): > 50%; percentage of apoptotic (<2N) particles ([1]; agent + Cmpd. I 1 μM, Cmpd. II 1 μM, Cmpd. VIII 1 μM, Z-Vad 50 μM, TNFα 10 ng/ml, CD40L coculture): 11 ± 1%; percentage of apoptotic (<2N) particles ([1]; agent + Compound I 100 nM + SR11237 100 nM, Cmpd. II 1 μM, Cmpd. VIII 1 μM, Z-Vad 50 μM, TNFα 10 ng/ml, CD40L coculture): 14 ± 2%; percentage of apoptotic (<2N) particles ([1]; agent + Rol 1 μM, Cmpd. VIII 1 μM, TNFα 10 ng/ml): 4.5 ± 1%; percentage of apoptotic (<2N) particles ([1]; agent + tRA 1 μM, Cmpd. II 1 μM, Cmpd. VIII 1 μM, Z-Vad 50 μM, TNFα 10 ng/ml, CD40L coculture): 8 ± 7%; percentage of apoptotic (<2N) particles ([1]; agent alone (column 0), Cmpd. II 1 μM, Cmpd. VIII 1 μM, Z-Vad 50 μM, TNFα 10 ng/ml, CD40L coculture): ≦5%
IL-1β: Human recombinant IL-1β from R&D Systems													inhibited the apoptotic effect of retinoids		
C=C(c1ccc(C(=O)O)cc1)c1cc2c(cc1C)C(C)(C)CC=C2C(C)C [Compound V, 4-[1-[5,6-Dihydro-3,5,5-trimethyl-8-(1-methylethyl)-2-naphthalenyl]ethenyl]benzoic acid]	+	≦5%	≦5%	≦5%	≦5%	also synergized with TNFα to activate LC	−	−						−	RARα-RXR DR5 (RARα-RXRα heterodimer): −; induction of apoptosis / death of immature LC by the substance on its own [1]: neither SR11237 (Table 3) nor BMS749 exhibited an apoptotic effect; (RXR)2 AF2 (RXRα homodimer [(RXR)2]): +
Cc1ccc(S(=O)(=O)N[C@@H](Cc2ccccc2)C(=O)CCl)cc1 [TPCK]															inhibition of the increase of class II and CD86 on LCs ([2]; LCs treated with tRA and TNFα, TPCK 10 nM): 50%; toxicity on LCs ([2]; TPCK 10 nM, LCs treated with tRA and TNFα): without any evidence of toxicity
